The target in test [1] is 31-mer RNA representing the P15-loop of RNase P RNA. Put plainly: Inhibition of Pb2+-induced cleavage of the 31-mer model RNA (P15-loop). The class given is binding, Escherichia coli. To be noted: aminoglycoside concentration that gives 50% inhibition of Pb2+-induced cleavage; read-out: appKi 31-mer RNA.
In test [2] the target is RNase P RNA. Briefly: Inhibition of RNase P RNA cleavage. Particulars: value without asterisk; read-out: appKi inhibition of RNase P RNA cleavage. The class given is biochemical, Escherichia coli. As to the method: The structure of some aminoglycosides that inhibit RNase P cleavage are depicted in FIG. 3. Aminoglycosides bind to RNA and displace functionally important divalent metal ions. Thus, aminoglycosides function as metal mimics (Mikkelsen et al., 2001).
RNase P cleavage and Pb2+-induced cleavage was performed and monitored according to standard protocols as described by Kufel and Kirsebom (1998). To determine the appKi value for a given substance RNase P cleavage or Pb2+-induced cleavage conditions were adjusted in such a way that measurements were carried out in the linear portion of the curve of kinetics of the cleavage reaction.

The target of test [3] is Escherichia coli Klenow polymerase (pol) (Escherichia coli, UniProt P00582, D355A/E357A). Briefly: Inhibition of Klenow polymerase activity.
Test [4] deals with T1, mammalian poly(A)-specific ribonuclease (PARN) (Bos taurus, UniProt P69341).
T1 sequence (P69341 1-430 limits assumed): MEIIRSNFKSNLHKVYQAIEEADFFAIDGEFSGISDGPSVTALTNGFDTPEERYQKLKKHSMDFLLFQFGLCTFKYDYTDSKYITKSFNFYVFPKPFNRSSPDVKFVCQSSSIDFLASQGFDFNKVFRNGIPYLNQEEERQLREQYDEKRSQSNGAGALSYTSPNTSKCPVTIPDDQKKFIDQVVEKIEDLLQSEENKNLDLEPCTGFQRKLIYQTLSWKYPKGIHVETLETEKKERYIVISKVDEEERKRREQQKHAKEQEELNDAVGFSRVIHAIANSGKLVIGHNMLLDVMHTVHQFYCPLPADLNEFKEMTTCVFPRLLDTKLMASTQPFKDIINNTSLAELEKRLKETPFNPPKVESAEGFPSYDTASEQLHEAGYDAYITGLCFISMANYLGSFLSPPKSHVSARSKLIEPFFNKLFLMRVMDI
Briefly: Inhibition of PARN deadenylation activity. To be noted: for IC50: appKi = aminoglycoside concentration resulting in 50% inhibition of PARN activity, pH 7.0. The class given is biochemical, calf thymus. The source says:
Homogeneously purified calf thymus PARN 54 kDa active fragment was used as the source of PARN (Martinez et al. 2000). Recombinant full length human PARN was expressed and purified as described (Martinez et al. 2000). As the substrate we used L3(A30) RNA radioactively labelled in its poly(Å) tail (Åström et al. 1991). Assay conditions and 1-D TLC quantitation procedures were as previously described (Åström et al. 1992). The pH of the deadenylation reactions were 7.0, unless stated otherwise. The consumption of L3(A30) RNA substrate was controlled so that no more than 20% of it was consumed.

For test [5], the target named is bacterial RNase H (Escherichia coli, UniProt P0A7Y4). Briefly: In vitro inhibition of bacterial RNase H. Particulars: addition of 0.1-5 mM neomycin B. The class given is biochemical. The source says: (§1) The mechanisms behind toxicity and severe side-effects are not understood and several potential causes have been discussed in the literature.
In test [6] the target is RNase P RNA. Particulars: values marked *, from Mikkelsen et al., 1999; read-out: appKi inhibition of RNase P RNA cleavage; cited from earlier work.
In test [7] the target is Taq DNA polymerase (Thermus aquaticus, UniProt P19821). Put plainly: In vitro inhibition of Taq DNA polymerase. To be noted: addition of 0.1-5 mM neomycin B. The class given is biochemical.
Excerpt: as §1

The test system of test [8] is Full-size E. coli RNase P RNA. Particulars: Mikkelsen et al., 1999; cited from earlier work.
In test [9] the target is mammalian poly(A) polymerase (Homo sapiens, UniProt P51003). Put plainly: In vitro inhibition of mammalian poly(A) polymerase. The class given is biochemical. To be noted: addition of 0.1-5 mM neomycin B.
Excerpt: as §1

Test [10] deals with T2, PARN (Homo sapiens, UniProt O95453).
T2 construct: Recombinant full length human PARN was expressed and purified as described; made in house; host or cells: E. coli
T2 sequence (O95453 1-639): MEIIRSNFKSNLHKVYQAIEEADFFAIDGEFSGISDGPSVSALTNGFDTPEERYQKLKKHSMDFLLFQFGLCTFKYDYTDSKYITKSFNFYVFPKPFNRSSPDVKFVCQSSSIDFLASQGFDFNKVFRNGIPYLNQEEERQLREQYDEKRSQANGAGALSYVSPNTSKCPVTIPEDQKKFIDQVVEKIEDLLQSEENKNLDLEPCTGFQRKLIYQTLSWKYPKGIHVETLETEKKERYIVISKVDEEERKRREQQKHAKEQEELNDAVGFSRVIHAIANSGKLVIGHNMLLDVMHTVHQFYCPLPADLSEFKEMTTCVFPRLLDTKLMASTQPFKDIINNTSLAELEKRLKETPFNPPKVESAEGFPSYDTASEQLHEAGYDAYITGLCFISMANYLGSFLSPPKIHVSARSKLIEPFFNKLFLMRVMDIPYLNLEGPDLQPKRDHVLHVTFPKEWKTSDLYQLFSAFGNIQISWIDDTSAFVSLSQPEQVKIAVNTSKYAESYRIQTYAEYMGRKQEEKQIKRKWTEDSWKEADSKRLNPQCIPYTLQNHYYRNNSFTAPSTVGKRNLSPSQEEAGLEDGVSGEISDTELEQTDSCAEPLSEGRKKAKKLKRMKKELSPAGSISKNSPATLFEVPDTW
Briefly: Fe(II) mediated hydroxyl radical cleavage of PARN. The class given is binding. As to the method:
Recombinant PARN polypeptides expressed in E. coli were purified and radioactively labelled in their N-termini. Fe(II) mediated hydroxyl radical cleavage, of PARN was essentially performed as described above. Reacted samples were subjected to 10% SDS-polyacrylamide gel electrophoresis and the resulting gel was subsequently visualized and quantified using a 400 S PhosphorImager (Molecular Dynamics). In the Mg(II) and Mn(II) ions competition experiments, MgCl2 or MnCl2 was added at indicated concentration in the presence of 20 micromolar Fe(NH4)2SO4.

For test [11], the system named is Klenow pol. Put plainly: Fe(II) mediated hydroxyl radical cleavage of Klenow pol. The class given is binding, Escherichia coli. As for the experimental part: 2-4 microgram of purified recombinant Klenow pol fragment or mutant thereof, dialysed against buffer F (20 mM HEPES-KOH pH 7.0, 5 mM NaCl) on a Milipore “V” Series Membrane (Millipore) for 30 minutes at 4° C., was incubated for 30 minutes at 37° C. in 50 mM HEPES pH 7.0, 5 mM NaCl, 20 micromolar Fe(NH4)2SO4 and 10 mM DTT in total volume of 10 microliter. The incubations were stopped by the addition of 10 microliter of 2×SDS-loading buffer (100 mM Tris-HCl pH 6.8, 2% (w/v) SDS, 200 mM DTT, 16%(v/v) glycerol, 0.05%(w/v) bromolphenol blue and 50 mM EDTA). The amount of added Mg(II)-ions, Mn(II)-ions or aminoglycoside was as indicated. Reacted polypeptides were fractionated by 10% SDS-polyacrylamide gel electrophoresis and subsequently visualised by silver staining.

The target in test [12] is Bam HI restriction enzyme (Bacillus amyloliquefaciens, UniProt P23940). Briefly: In vitro inhibition of Bam HI restriction enzyme. The class given is biochemical. To be noted: addition of 0.1-5 mM neomycin B.
Excerpt: as §1

Test [13] addresses T7 RNA polymerase (Escherichia phage T7, UniProt P00573). Put plainly: In vitro inhibition of T7 RNA polymerase. The class given is biochemical. Particulars: addition of 0.1-5 mM neomycin B.
Excerpt: as §1

Test [14] has as its target T3, HIV reverse transcriptase (Human immunodeficiency virus type 1 group M subtype B, UniProt P04585).
T3 construct: HIV reverse transcriptase
Put plainly: In vitro inhibition of HIV reverse transcriptase. The class given is biochemical. Particulars: addition of 0.1-5 mM neomycin B.
Excerpt: as §1

Setting [15] is: read-out: appKi (for KL pol), […], pH 7.0.

Like-named read-outs stand apart in the source and are kept apart here.

Chain of Escherichia coli Klenow polymerase (pol) (P00582 324-928 D355A/E357A): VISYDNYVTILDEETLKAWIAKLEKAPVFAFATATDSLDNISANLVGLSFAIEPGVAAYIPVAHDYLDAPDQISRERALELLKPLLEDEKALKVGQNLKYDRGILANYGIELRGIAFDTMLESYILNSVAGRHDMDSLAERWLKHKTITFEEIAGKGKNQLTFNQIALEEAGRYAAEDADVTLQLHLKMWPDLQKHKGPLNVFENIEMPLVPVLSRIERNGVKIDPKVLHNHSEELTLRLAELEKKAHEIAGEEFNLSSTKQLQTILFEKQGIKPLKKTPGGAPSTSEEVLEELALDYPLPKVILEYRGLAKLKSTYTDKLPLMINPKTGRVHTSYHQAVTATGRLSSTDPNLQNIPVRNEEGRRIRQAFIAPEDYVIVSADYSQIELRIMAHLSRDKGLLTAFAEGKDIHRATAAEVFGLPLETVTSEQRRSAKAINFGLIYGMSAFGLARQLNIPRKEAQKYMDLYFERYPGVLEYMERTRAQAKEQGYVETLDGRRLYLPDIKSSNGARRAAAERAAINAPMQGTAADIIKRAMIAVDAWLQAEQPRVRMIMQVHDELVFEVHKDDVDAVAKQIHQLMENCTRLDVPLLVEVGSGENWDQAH
Chain of T7 RNA polymerase (P00573 whole entry): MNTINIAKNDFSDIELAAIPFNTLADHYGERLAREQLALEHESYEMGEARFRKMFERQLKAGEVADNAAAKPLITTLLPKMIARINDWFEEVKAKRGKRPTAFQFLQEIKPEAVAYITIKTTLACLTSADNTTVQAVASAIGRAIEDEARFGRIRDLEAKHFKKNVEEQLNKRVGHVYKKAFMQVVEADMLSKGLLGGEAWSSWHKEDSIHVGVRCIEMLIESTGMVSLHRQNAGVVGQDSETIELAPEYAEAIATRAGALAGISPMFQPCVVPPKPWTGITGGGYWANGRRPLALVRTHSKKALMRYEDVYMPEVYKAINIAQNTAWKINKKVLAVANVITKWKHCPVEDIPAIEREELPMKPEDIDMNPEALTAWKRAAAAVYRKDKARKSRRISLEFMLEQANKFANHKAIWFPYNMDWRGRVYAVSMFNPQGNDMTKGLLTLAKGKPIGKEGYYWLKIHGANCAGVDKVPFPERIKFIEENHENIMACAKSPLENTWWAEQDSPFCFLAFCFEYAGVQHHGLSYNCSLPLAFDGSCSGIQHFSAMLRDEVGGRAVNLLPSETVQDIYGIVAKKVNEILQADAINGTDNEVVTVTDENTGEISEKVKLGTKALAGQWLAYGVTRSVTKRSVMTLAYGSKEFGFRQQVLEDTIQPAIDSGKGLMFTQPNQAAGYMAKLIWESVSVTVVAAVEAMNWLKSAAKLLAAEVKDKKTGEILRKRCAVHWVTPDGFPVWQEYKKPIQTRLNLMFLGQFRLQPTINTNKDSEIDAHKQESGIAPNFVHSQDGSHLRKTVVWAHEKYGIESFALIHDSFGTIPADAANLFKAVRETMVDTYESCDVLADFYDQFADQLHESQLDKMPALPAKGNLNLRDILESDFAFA
Chain of Taq DNA polymerase (P19821 whole entry): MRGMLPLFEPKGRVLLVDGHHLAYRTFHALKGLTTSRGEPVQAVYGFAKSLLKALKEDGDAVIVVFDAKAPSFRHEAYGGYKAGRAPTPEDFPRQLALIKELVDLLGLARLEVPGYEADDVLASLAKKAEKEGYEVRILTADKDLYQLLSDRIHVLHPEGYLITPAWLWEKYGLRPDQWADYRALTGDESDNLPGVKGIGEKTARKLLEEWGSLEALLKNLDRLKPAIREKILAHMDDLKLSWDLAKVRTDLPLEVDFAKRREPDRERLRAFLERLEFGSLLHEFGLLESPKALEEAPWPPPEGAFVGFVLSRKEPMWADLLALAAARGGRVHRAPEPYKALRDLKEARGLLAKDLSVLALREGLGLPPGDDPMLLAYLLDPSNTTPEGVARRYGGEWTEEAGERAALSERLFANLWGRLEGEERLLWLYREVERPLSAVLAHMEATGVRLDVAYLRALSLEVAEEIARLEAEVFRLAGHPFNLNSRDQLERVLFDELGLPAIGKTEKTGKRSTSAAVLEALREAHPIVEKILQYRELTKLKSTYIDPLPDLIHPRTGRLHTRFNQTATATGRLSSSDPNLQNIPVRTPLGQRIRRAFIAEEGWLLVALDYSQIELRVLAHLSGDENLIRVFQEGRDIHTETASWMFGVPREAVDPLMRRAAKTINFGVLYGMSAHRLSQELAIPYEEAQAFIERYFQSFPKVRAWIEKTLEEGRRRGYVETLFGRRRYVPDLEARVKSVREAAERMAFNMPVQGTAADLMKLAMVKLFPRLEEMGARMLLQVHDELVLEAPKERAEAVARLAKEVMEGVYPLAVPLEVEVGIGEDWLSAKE
Chain of mammalian poly(A) polymerase (P51003 whole entry): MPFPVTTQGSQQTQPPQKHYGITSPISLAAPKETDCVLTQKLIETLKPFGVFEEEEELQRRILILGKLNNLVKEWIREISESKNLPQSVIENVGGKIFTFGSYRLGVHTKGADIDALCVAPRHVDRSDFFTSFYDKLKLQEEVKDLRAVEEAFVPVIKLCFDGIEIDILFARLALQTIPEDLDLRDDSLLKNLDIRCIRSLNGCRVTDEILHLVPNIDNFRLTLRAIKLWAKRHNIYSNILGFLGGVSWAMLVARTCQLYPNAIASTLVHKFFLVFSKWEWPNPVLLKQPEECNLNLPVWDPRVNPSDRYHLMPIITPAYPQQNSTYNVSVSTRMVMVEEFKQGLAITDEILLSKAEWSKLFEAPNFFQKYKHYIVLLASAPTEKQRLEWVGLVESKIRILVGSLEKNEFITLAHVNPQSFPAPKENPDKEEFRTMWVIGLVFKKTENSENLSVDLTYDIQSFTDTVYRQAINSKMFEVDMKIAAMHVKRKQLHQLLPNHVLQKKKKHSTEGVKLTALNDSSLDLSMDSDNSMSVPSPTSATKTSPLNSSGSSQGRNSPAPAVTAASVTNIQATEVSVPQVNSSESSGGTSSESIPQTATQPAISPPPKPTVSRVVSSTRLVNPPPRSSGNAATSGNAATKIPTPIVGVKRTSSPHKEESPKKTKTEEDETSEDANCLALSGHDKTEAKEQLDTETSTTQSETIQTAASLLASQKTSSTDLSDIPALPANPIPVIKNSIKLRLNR
Chain of Bam HI restriction enzyme (P23940 whole entry): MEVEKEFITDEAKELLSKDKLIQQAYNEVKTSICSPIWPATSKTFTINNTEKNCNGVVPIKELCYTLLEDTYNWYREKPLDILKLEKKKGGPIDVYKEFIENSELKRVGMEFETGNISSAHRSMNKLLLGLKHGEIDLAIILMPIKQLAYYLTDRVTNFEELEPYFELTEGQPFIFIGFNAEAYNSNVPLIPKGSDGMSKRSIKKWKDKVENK
Chain of bacterial RNase H (P0A7Y4 whole entry): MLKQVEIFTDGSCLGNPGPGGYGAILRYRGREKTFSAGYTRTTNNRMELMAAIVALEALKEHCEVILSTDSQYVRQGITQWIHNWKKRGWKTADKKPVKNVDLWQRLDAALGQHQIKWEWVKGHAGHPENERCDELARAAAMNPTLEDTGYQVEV

On to `CN[C@@H]1[C@@H](O)[C@@H](O[C@@H]2[C@H](O)[C@H](O[C@H]3OC(CN)=CC[C@H]3N)[C@@H](N)C[C@H]2N)OC[C@]1(C)O` [5-epi-Sisomicin], for which the values for the IC50 in test [1] and in test [2] were 1.2 µM and approximately 3 µM, respectively.

On to `NC[C@H]1O[C@H](O[C@H]2[C@H](O)[C@@H](O[C@H]3O[C@H](CO)[C@@H](O)[C@H](N)[C@H]3O)[C@H](N)C[C@@H]2N)[C@H](O)[C@@H](O)[C@@H]1O` [Kanamycin A], for which the IC50 in test [3] (setting [15]) turned out to be 14300 ± 1700 µM.

For `NC[C@H]1O[C@H](O[C@H]2[C@H](O)[C@@H](O[C@H]3O[C@H](CO)[C@@H](O)[C@H](N)[C@H]3O)[C@H](N)C[C@@H]2N)[C@H](N)[C@@H](O)[C@@H]1O` [Kanamycin B], the values for the IC50 in [3] (setting [15]) and in test [4] were 9200 ± 300 µM and 7.3 ± 0.4 µM, respectively.

As to `NC[C@@H]1O[C@H](O[C@H]2[C@@H](O)[C@H](O[C@@H]3[C@@H](O)[C@H](N)C[C@H](N)[C@H]3O[C@H]3O[C@H](CO)[C@@H](O)C[C@H]3N)O[C@@H]2CO)[C@H](N)[C@@H](O)[C@@H]1O[C@H]1O[C@H](CO)[C@@H](O)[C@H](O)[C@@H]1O` [Lividomycin], the IC50 was determined as 11600 ± 2000 µM in test [3] and 18.7 ± 2.8 µM in test [4].

For `NC[C@@H]1O[C@H](O[C@H]2[C@@H](O)[C@H](O[C@@H]3[C@@H](O)[C@H](N)C[C@H](N)[C@H]3O[C@H]3O[C@H](CN)[C@@H](O)[C@H](O)[C@H]3N)O[C@@H]2CO)[C@H](N)[C@@H](O)[C@@H]1O` [Neomycin B], the “mode of inhibition (enzyme kinetic analyses)” value in test [3] (Klenow pol) and in test [4] (PARN) was “mixed non-competitive inhibitor” each time. Also, the “pH dependence of inhibition” value in test [3] (Klenow pol) and in test [4] (PARN) was “pH dependent” each time. Moreover, the IC50 was 4800 ± 300 µM in [3] (setting [15]), 40 µM in [1], 35 ± 12 µM in test [6] and 0.4 ± 0.1 µM in test [4]. The “inhibition of bacterial RNase H” value in [5] is recorded as “can be inhibited”. Further, the “inhibition of Taq DNA polymerase” value in test [7] is recorded as “can be inhibited”. Moreover, the “inhibition of Pb2+-induced cleavage of E. coli RNase P RNA” value in [8] is “inhibited”. In test [9], the “inhibition of mammalian poly(A) polymerase” value is given as “can be inhibited”. The “effect on iron mediated cleavage at the active site” value in test [10] and in test [11] was “interfered with iron mediated cleavage” throughout. In addition, the “inhibition of Bam HI restriction enzyme” value in test [12] was “can be inhibited”. For the same molecule, in test [13], the “inhibition of T7 RNA polymerase” value is given as “can be inhibited”. The “inhibition of HIV reverse transcriptase” value in [14] is “can be inhibited”.

As to `NC[C@@H]1O[C@H](O[C@H]2[C@@H](O)[C@H](O[C@@H]3[C@@H](O)[C@H](N)C[C@H](N)[C@H]3O[C@H]3O[C@H](CO)[C@@H](O)[C@H](O)[C@H]3N)O[C@@H]2CO)[C@H](N)[C@@H](O)[C@@H]1O` [Paromomycin], the IC50 in [3] was 10300 ± 800 µM; in test [1] it was 340 µM; in test [6] it was 190 ± 12 µM; in [4] it was 17.3 ± 3.5 µM.

As to `CN[C@@H]1[C@@H](O)[C@@H](O[C@@H]2[C@@H](O)[C@H](O[C@H]3OC(CN)=CC[C@H]3N)[C@@H](N)C[C@H]2N)OC[C@]1(C)O` [Sisomicin], the IC50 in test [1] was 17 µM.

Regarding `NC[C@H]1O[C@H](O[C@H]2[C@H](O)[C@@H](O[C@H]3O[C@H](CO)[C@@H](O)[C@H](N)[C@H]3O)[C@H](N)C[C@@H]2N)[C@H](N)C[C@@H]1O` [Tobramycin], the figures for the IC50 in test [3] and in [4] were 9300 ± 700 µM and 7.1 ± 0.2 µM, respectively.

The values are drawn from patent publication US7794967B2, “Method and kit for detection of novel pathogen inhibitors” (priority 2001, dated 2010).
